Experimental data: ChEMBL document CHEMBL1201862, “PubChem BioAssay data set” (2004)
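How tested: cells in 96-well plates exposed to compound for 48 hours at five concentrations. The concentration for 50% growth inhibition is given as GI50.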 Calls of active or inactive are those of the source. Rule as the data show it: active = GI50 up to about 1.1 µM and inactive = higher.

Key:
Assay in all cases: DTP human tumour cell line panel, 48 h
MDA-MB-231 = system: MDA-MB-231
NCI-H460 = system: NCI-H460
ACHN = system: ACHN
MDA-N = system: MDA-N
KM12 = system: KM12
HCT-15 = system: HCT-15
SN12C = system: SN12C
RXF 393 = system: RXF 393
RPMI-8226 = system: RPMI-8226
BT-549 = system: BT-549
SR = system: SR
SNB-19 = system: SNB-19
HOP-62 = system: HOP-62
HT-29 = system: HT-29
HCC 2998 = system: HCC 2998
SK-MEL-2 = system: SK-MEL-2
A549 = system: A549
SNB-75 = system: SNB-75

Compound	GI50 (MDA-MB-231)	GI50 (NCI-H460)	GI50 (ACHN)	GI50 (MDA-N)	GI50 (KM12)	GI50 (HCT-15)	GI50 (SN12C)	GI50 (RXF 393)	GI50 (RPMI-8226)	GI50 (BT-549)	GI50 (SR)	GI50 (SNB-19)	GI50 (HOP-62)	GI50 (HT-29)	GI50 (HCC 2998)	GI50 (SK-MEL-2)	GI50 (A549)	GI50 (SNB-75)
CCOC(=O)Nc1sc2c(c1C#N)CCCC2	71.3 µM (inactive)	> 100 µM (inactive)	> 100 µM (inactive)	50.4 µM (inactive)	25.9 µM (inactive)	79.4 µM	> 100 µM (inactive)	> 100 µM (inactive)	33 µM (inactive)	49 µM (inactive)	75 µM (inactive)	89.5 µM (inactive)	> 100 µM (inactive)	> 100 µM (inactive)	> 100 µM (inactive)	> 100 µM (inactive)		
O=C1COc2ccc([N+](=O)[O-])cc2C(=O)C1	> 10 µM (inactive)	> 10 µM (inactive)	> 10 µM (inactive)	> 10 µM (inactive)	> 10 µM (inactive)	> 10 µM	> 10 µM (inactive)	> 10 µM (inactive)	> 10 µM (inactive)	> 10 µM (inactive)	> 10 µM (inactive)	> 10 µM (inactive)	> 10 µM (inactive)	> 10 µM (inactive)	> 10 µM (inactive)	> 10 µM (inactive)	> 10 µM (inactive)	
CC1=CC2C3(C)C(C)(C(C)=CP3(=O)c3c(C(C)C)cc(C(C)C)cc3C(C)C)C1P2(=O)c1c(C(C)C)cc(C(C)C)cc1C(C)C (stereo unspecified)	1.77 µM (inactive)	1.47 µM (inactive)	2.68 µM (inactive)	2.21 µM (inactive)	1.78 µM (inactive)	1.95 µM	2.58 µM (inactive)	3.2 µM (inactive)	0.916 µM (active)	1.77 µM (inactive)	1.34 µM (inactive)	3.84 µM (inactive)	2.41 µM (inactive)	2.11 µM (inactive)	1.9 µM (inactive)	1.72 µM (inactive)	2.42 µM (inactive)	3.05 µM (inactive)
COC1/C=C/C(C)C(OC)CC(O)/C=C/C(C)C(C(C)C(OC)C(C)CCC(=O)C(C)C(C/C=C/N(C)C=O)OC)OC(=O)/C=C/C=C(\C)CC(OC)CC2=CC(=O)O[C@@H](C(C)C(OC)C1)[C@H]2O (stereo partly specified)	0.0395 µM (active)	0.0395 µM (active)	0.091 µM (active)	0.0951 µM (active)	0.0753 µM (active)	0.0556 µM	0.379 µM (active)	0.0735 µM (active)	0.0536 µM (active)	0.142 µM (active)	0.0929 µM (active)	0.0962 µM (active)	0.0537 µM (active)	0.0845 µM (active)	0.175 µM (active)		0.119 µM (active)	0.0697 µM (active)
O=C(O)C1C(C(=O)O)C23CC2(C(=O)O)C2(C(=O)O)CCC3=C3CCCC312 (stereo unspecified)	12.1 µM (inactive)	4.99 µM (inactive)	9.51 µM (inactive)	4.79 µM (inactive)	14 µM (inactive)	15.1 µM	8.87 µM (inactive)	6.84 µM (inactive)	6.01 µM (inactive)	17.2 µM (inactive)	2.24 µM (inactive)	7.93 µM (inactive)	4.44 µM (inactive)	7.45 µM (inactive)		14 µM (inactive)	6.34 µM (inactive)	11.2 µM (inactive)
COC(=O)c1c(O)ccc2c1c1c(n2CCc2ccc(OC)c(OC)c2)C(=O)c2ccccc2C1=O	22.4 µM (inactive)	5.01 µM (inactive)	18.2 µM (inactive)	10.9 µM (inactive)	13 µM (inactive)	12.7 µM	21.9 µM (inactive)	16.8 µM (inactive)	6.55 µM (inactive)	10.9 µM (inactive)	14.8 µM (inactive)	22.5 µM (inactive)	16 µM (inactive)	3.13 µM (inactive)	4.29 µM (inactive)	16.4 µM (inactive)	14.5 µM (inactive)	
O=C(N/N=C1\CCc2ccccc2C1)N/N=C1\CCc2ccccc2C1	> 10 µM (inactive)	> 10 µM (inactive)	> 10 µM (inactive)	> 10 µM (inactive)	> 10 µM (inactive)	> 10 µM	> 10 µM (inactive)	> 10 µM (inactive)	> 10 µM (inactive)	> 10 µM (inactive)	> 10 µM (inactive)	> 10 µM (inactive)	> 10 µM (inactive)	> 10 µM (inactive)	> 10 µM (inactive)	> 10 µM (inactive)	> 10 µM (inactive)	
CS(=O)(=O)Nc1ccc(NCc2c[nH]c3ccc4ncccc4c23)cc1	27.4 µM (inactive)	30 µM (inactive)	20.6 µM (inactive)	18 µM (inactive)	17.5 µM (inactive)	27.2 µM	25.8 µM (inactive)	23.9 µM (inactive)	11 µM (inactive)	30.3 µM (inactive)	13.3 µM (inactive)	49.1 µM (inactive)	36.5 µM (inactive)	34.8 µM (inactive)		17.1 µM (inactive)	43.4 µM (inactive)	30.3 µM (inactive)
COc1ccc(CCNC(=O)c2ccccc2C2c3ccc(OCc4ccccc4)cc3Oc3cc(OCc4ccccc4)ccc32)cc1OC	> 100 µM (inactive)		> 100 µM (inactive)	> 100 µM (inactive)	> 100 µM (inactive)	> 100 µM	> 100 µM (inactive)	> 100 µM (inactive)	> 100 µM (inactive)	> 100 µM (inactive)	> 100 µM (inactive)	> 100 µM (inactive)	> 100 µM (inactive)	> 100 µM (inactive)	> 100 µM (inactive)	> 100 µM (inactive)	> 100 µM (inactive)	
NC(=O)CC(N)C(N)=O (stereo unspecified)	> 100 µM (inactive)	> 100 µM (inactive)	> 100 µM (inactive)	> 100 µM (inactive)	> 100 µM (inactive)	> 100 µM	> 100 µM (inactive)	> 100 µM (inactive)	> 100 µM (inactive)	> 100 µM (inactive)	> 100 µM (inactive)	> 100 µM (inactive)	> 100 µM (inactive)			> 100 µM (inactive)	> 100 µM (inactive)	> 100 µM (inactive)
COc1cc2c(cc1OC)C(CCN)=NCC2	16.6 µM (inactive)	> 59.2 µM (inactive)	16.6 µM (inactive)	15.8 µM (inactive)	19 µM (inactive)	19.6 µM	19 µM (inactive)	15.7 µM (inactive)	5.33 µM (inactive)	19.1 µM (inactive)	4.58 µM (inactive)	41.4 µM (inactive)	21.1 µM (inactive)	20.2 µM (inactive)		17.4 µM (inactive)	31.6 µM (inactive)	18.5 µM (inactive)
N#C[BH2-][n+]1ccc(C(=O)NNCc2ccc(F)cc2)cc1	> 100 µM (inactive)	> 100 µM (inactive)	> 100 µM (inactive)	> 100 µM (inactive)	> 100 µM (inactive)	> 100 µM	> 100 µM (inactive)	> 100 µM (inactive)	> 100 µM (inactive)	> 100 µM (inactive)	> 100 µM (inactive)	> 100 µM (inactive)			> 100 µM (inactive)	> 100 µM (inactive)	> 100 µM (inactive)	> 100 µM (inactive)
